# Experimental data taken from patent US20260317313A1, “DNA Polymerase Theta Inhibitors Containing Non-Saturated 5-Membered Heterocyclic Rings and Use Thereof” (Thomas Jefferson University, priority 2022, published 2026).
# Molecular target: T1, recombinant human Polq polymerase domain (residues 1792-2590) (Homo sapiens, UniProt O75417)
# T1 sequence (O75417 1792-2590): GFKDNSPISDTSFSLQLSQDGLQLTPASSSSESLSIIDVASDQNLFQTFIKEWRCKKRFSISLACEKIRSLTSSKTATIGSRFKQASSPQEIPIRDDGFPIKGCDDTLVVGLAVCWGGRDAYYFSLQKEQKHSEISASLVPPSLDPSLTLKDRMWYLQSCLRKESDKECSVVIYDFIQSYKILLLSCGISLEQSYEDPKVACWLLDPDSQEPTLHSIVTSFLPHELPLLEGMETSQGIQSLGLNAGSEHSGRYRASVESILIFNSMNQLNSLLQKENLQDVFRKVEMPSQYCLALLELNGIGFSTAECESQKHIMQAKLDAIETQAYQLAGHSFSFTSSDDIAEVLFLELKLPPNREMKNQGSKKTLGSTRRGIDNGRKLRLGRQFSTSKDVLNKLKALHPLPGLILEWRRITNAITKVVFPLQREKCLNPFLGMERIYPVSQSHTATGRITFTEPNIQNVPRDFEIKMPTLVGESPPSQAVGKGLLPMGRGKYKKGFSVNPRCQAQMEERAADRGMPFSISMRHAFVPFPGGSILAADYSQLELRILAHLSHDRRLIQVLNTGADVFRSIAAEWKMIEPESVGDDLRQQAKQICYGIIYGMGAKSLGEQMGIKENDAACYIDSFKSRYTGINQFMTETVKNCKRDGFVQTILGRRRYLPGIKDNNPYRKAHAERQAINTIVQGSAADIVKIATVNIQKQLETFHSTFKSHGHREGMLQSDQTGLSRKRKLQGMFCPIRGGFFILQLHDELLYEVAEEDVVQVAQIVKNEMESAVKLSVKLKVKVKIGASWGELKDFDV
# Experiment: Cy5 fluorescence assay of Polq polymerase enzymatic activity
# Type: biochemical
# Conditions: 5 nM Polq polymerase domain, 60 nM primer-template, 50 uM dNTPs, 37° C., 18 min, 2.5% DMSO, triplicate
# Description: The following Cy5 fluorescence assay was used to measure the ability of compounds to inhibit Polq polymerase domain in vitro. The fluorescent based assay was performed as follows: 60 nM of the pre-annealed primer-template containing a 5′ Cy5 fluorophore conjugated template strand (SEQ ID NO 6: 5′-/5Cy5/ […] GGACAG-3′), a downstream complementary oligo conjugated with a 3′ Blackhole quencher (SEQ ID NO 7: 5′-CTAAGCTCACAGTG/3IAbRQSp/-3′) and a primer strand (SEQ ID NO 8: 5′-CTGTCCTGCATGATG-3′) was mixed with 50 uM 2′-deoxyribonucleoside triphosphates (dNTPs), 0.1 mg/mL Bovine serum albumin (BSA), 0.01% NP-40, 10% glycerol, 1 mM dithiothreitol (DTT), 10 mM MgCl2, 25 mM TrisHCl pH 7.8 in the presence of 2.5% DMSO with or without various concentrations (7-point dilution series) of Polq small molecule inhibitors represented by Formula I at 37° C. in a volume of 40 μL.
row,Compound,IC50
1,CN(C(=O)Oc1c(-c2cn(CCO)nn2)cc(C(F)(F)F)cc1C(F)(F)F)c1ccc(F)cc1 [Example 1],4.8 nM

# Same assay, conditions: Polq IC50, 5 nM Polq polymerase domain, 60 nM primer-template, 50 uM dNTPs, 37° C., 18 min, 2.5% DMSO, triplicate
row,Compound,IC50
1,"[2H]C([2H])([2H])N(C(=O)Oc1c(-c2cn(C3C[C@@H](O)[C@@H](O)C3)nn2)cc(C(F)(F)F)cc1C(F)(F)F)c1ccc(F)cc1 (mixture of isomers) [Example 12, 2-{1-[(3R,4S)-3,4-dihydroxycyclopentyl]-1H-1,2,3-triazol-4-yl}-4,6-bis(trifluoromethyl)phenyl N-(4-fluorophenyl)-(methyl-d3)carbamate (Racemate)]",2.2 nM
2,"[2H]C([2H])([2H])N(C(=O)Oc1c(-c2cn(C3C[C@@H](O)[C@@H](O)C3)nn2)cc(C(F)(F)F)cc1C(F)(F)F)c1ccc(F)cc1 (mixture of isomers) [Example 13, 2-{1-[(3R,4S)-3,4-dihydroxycyclopentyl]-1H-1,2,3-triazol-4-yl}-4,6-bis(trifluoromethyl)phenyl N-(4-fluorophenyl)-(methyl-d3)carbamate (Racemate)]",4.6 nM
3,"CN(C(=O)Oc1c(-n2cc[nH]c2=O)cc(C(F)(F)F)cc1C(F)(F)F)c1ccc(F)cc1 [Example 2, 2-(2-oxo-2,3-dihydro-1H-imidazol-1-yl)-4,6-bis(trifluoromethyl)phenyl N-(4-fluorophenyl)-N-methylcarbamate]",4 nM
4,"CN(C(=O)Oc1c(-c2cn(CCCCC(=O)Nc3cccc4c3C(=O)N(C3CCC(=O)NC3=O)C4=O)nn2)cc(C(F)(F)F)cc1C(F)(F)F)c1ccc(F)cc1 (stereo not drawn) [Example 3, 2-(1-(5-((2-(2,6-dioxopiperidin-3-yl)-1,3-dioxoisoindolin-4-yl)amino)-5-oxopentyl)-1H-1,2,3-triazol-4-yl)-4,6-bis(trifluoromethyl)phenyl (4-fluorophenyl) (methyl)carbamate]",3.3 nM
5,"CN(C(=O)Oc1c(-c2cn(CCCCCC(=O)Nc3cccc4c3C(=O)N(C3CCC(=O)NC3=O)C4=O)nn2)cc(C(F)(F)F)cc1C(F)(F)F)c1ccc(F)cc1 (stereo not drawn) [Example 4, 2-(1-(6-((2-(2,6-dioxopiperidin-3-yl)-1,3-dioxoisoindolin-4-yl)amino)-6-oxohexyl)-1H-1,2,3-triazol-4-yl)-4,6-bis(trifluoromethyl)phenyl (4-fluorophenyl) (methyl)carbamate]",5.5 nM
6,"CN(C(=O)Oc1c(-c2cn(CCOCC(=O)Nc3cccc4c3C(=O)N(C3CCC(=O)NC3=O)C4=O)nn2)cc(C(F)(F)F)cc1C(F)(F)F)c1ccc(F)cc1 (stereo not drawn) [Example 5, 2-(1-(2-(2-((2-(2,6-dioxopiperidin-3-yl)-1,3-dioxoisoindolin-4-yl)amino)-2-oxoethoxy)ethyl)-1H-1,2,3-triazol-4-yl)-4,6-bis(trifluoromethyl)phenyl (4-fluorophenyl) (methyl)carbamate]",4.6 nM
7,"CN(C(=O)Oc1c(-c2cn(CCOCCOCC(=O)Nc3cccc4c3C(=O)N(C3CCC(=O)NC3=O)C4=O)nn2)cc(C(F)(F)F)cc1C(F)(F)F)c1ccc(F)cc1 (stereo not drawn) [Example 6, 2-(1-(2-(2-(2-((2-(2,6-dioxopiperidin-3-yl)-1,3-dioxoisoindolin-4-yl)amino)-2-oxoethoxy)ethoxy)ethyl)-1H-1,2,3-triazol-4-yl)-4,6-bis(trifluoromethyl)phenyl (4-fluorophenyl)(methyl)carbamate]",4 nM
8,"CN(C(=O)Oc1c(-c2cn(CCCCCCCCC(=O)Nc3cccc4c3C(=O)N(C3CCC(=O)NC3=O)C4=O)nn2)cc(C(F)(F)F)cc1C(F)(F)F)c1ccc(F)cc1 (stereo not drawn) [Example 7, 2-(1-(9-((2-(2,6-dioxopiperidin-3-yl)-1,3-dioxoisoindolin-4-yl)amino)-9-oxononyl)-1H-1,2,3-triazol-4-yl)-4,6-bis(trifluoromethyl)phenyl (4-fluorophenyl) (methyl)carbamate]",5.8 nM
